Results reported in article doi:10.1101/2024.08.13.607785v1 (biorxiv, 2024).

Columns and labels:
Design in all cases: species or system mixed lysate of K562, MV4-11, THP-1, NCI-H1155
[1] = target: Tyrosine-protein kinase Lyn ; LYN ; P07948 (Homo sapiens, UniProt P07948); settings: DIA-MS residual binding; binder
[2] = target: T1, Tyrosine-protein kinase Tec ; TEC ; P42680 (Homo sapiens, UniProt P42680); settings: binder
T1 sequence (P42680 1-631): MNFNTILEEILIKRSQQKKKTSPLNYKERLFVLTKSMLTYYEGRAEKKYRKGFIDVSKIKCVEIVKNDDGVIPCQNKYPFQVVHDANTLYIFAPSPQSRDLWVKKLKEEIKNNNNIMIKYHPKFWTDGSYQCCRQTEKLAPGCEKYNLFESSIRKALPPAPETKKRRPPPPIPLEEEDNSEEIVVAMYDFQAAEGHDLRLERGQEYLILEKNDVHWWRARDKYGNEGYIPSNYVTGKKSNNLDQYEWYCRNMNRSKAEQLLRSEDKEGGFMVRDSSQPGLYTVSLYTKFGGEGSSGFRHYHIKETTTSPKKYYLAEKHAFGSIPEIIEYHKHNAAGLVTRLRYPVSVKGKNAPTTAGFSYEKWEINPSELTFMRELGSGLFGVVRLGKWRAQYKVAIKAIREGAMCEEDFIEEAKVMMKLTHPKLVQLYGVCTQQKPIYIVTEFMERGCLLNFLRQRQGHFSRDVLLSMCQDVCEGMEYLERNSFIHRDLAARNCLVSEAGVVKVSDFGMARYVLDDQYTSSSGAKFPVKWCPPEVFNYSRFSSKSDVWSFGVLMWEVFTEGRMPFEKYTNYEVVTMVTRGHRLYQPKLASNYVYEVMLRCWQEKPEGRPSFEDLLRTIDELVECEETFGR

[3] = target: Isoform 3 of Membrane-associated tyrosine- and threonine-specific cdc2 ; PKMYT1-3 ; Q99640-3 (Homo sapiens, UniProt Q99640); settings: binder
Chain of Isoform 3 of Membrane-associated tyrosine- and threonine-specific cdc2 ; PKMYT1-3 ; Q99640-3 (Q99640 whole entry, canonical isoform, one chain of several): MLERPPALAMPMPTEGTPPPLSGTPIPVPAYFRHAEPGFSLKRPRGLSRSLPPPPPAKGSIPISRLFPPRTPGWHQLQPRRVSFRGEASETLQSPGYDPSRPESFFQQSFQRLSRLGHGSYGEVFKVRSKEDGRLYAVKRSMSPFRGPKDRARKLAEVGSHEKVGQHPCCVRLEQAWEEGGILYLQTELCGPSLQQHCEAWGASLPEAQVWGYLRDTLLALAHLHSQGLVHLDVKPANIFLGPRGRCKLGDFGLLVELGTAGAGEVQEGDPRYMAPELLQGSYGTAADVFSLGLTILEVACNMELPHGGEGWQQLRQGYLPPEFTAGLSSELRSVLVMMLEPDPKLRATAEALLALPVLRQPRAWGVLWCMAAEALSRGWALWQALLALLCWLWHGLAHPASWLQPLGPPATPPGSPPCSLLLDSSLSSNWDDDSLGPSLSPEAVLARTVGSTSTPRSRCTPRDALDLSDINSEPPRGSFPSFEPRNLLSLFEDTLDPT

[4] = target: Mitogen-activated protein kinase 14 ; MAPK14 ; Q16539 (Homo sapiens, UniProt Q16539); settings: DIA-MS residual binding; binder
Chain of Mitogen-activated protein kinase 14 ; MAPK14 ; Q16539 (Q16539 whole entry): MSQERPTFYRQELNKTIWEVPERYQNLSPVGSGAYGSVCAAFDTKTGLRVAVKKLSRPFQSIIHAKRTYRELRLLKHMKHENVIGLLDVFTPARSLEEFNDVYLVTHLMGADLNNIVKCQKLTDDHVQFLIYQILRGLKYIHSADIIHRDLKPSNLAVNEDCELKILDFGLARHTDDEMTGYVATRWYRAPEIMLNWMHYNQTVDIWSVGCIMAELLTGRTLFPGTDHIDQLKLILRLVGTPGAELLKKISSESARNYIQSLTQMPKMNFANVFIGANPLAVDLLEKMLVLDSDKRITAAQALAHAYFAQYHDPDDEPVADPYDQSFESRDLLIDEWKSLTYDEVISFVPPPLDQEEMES

[5] = target: Tyrosine-protein kinase Yes ; YES1 ; P07947 (Homo sapiens, UniProt P07947); settings: binder
Chain of Tyrosine-protein kinase Yes ; YES1 ; P07947 (P07947 whole entry): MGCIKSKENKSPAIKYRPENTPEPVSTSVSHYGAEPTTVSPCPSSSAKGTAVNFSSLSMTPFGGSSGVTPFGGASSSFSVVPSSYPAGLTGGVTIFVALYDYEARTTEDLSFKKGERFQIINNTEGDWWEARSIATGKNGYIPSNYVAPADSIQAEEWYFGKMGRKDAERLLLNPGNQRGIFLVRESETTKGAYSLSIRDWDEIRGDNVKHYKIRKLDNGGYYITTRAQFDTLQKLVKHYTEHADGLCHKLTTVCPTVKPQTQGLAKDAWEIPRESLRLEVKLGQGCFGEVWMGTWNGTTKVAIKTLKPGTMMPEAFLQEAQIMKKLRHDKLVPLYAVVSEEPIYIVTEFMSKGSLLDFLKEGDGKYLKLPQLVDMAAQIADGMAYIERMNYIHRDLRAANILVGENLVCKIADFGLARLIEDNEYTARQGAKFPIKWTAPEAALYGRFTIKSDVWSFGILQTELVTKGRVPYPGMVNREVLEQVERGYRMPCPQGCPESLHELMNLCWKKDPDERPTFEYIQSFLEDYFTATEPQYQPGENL

[6] = target: Tyrosine-protein kinase Fyn ; FYN ; P06241 (Homo sapiens, UniProt P06241); settings: DIA-MS residual binding; binder
Chain of Tyrosine-protein kinase Fyn ; FYN ; P06241 (P06241 whole entry, the tested form may be a part): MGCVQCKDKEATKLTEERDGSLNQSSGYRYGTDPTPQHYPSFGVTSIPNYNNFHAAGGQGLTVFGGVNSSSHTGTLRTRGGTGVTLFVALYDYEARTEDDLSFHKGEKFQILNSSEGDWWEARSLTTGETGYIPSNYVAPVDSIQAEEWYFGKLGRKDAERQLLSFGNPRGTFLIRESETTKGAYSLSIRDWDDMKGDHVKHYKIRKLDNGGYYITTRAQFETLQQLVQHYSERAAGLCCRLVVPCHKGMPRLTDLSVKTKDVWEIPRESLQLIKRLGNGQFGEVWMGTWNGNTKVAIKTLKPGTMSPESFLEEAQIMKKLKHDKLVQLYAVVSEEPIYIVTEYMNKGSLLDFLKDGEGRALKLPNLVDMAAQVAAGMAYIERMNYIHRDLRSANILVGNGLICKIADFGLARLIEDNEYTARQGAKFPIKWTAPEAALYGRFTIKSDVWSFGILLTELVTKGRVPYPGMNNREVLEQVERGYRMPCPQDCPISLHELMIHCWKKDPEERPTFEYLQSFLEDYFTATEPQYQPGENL

[7] = target: LIM domain kinase 2 ; LIMK2 ; P53671 (Homo sapiens, UniProt P53671); settings: DIA-MS residual binding; binder
Chain of LIM domain kinase 2 ; LIMK2 ; P53671 (P53671 whole entry, the tested form may be a part): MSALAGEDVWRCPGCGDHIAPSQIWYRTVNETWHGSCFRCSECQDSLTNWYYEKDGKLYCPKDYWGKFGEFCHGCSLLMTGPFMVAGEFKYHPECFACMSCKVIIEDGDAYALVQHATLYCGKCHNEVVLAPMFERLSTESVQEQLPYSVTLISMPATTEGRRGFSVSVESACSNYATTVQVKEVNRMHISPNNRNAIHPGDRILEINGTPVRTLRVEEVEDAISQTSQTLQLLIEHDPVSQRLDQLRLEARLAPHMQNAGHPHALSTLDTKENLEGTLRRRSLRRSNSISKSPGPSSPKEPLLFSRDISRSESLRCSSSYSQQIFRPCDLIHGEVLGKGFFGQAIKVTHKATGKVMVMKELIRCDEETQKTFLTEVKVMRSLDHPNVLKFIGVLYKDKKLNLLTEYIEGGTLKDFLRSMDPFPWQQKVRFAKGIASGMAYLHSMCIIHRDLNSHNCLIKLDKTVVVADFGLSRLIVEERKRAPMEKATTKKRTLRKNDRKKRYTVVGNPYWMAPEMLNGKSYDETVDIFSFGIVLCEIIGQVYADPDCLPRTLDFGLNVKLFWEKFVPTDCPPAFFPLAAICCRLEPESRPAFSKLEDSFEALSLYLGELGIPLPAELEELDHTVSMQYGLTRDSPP

[8] = target: T2, Dual specificity mitogen-activated protein kinase kinase 3 ; MAP2K3 ; P46734 (Homo sapiens, UniProt P46734); settings: DIA-MS residual binding; binder
T2 sequence (P46734 1-347): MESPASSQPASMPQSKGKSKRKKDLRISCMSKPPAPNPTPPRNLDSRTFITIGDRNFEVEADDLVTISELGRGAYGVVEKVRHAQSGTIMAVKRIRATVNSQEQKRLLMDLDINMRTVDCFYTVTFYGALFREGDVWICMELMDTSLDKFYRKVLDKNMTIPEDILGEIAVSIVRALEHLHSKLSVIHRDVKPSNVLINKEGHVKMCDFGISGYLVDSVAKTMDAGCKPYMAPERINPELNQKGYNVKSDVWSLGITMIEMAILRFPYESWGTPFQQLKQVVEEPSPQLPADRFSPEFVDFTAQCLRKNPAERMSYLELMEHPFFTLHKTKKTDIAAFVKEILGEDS

[9] = target: Ephrin type-A receptor 5 ; EPHA5 ; P54756 (Homo sapiens, UniProt P54756); settings: DIA-MS residual binding; binder
[10] = target: Tyrosine-protein kinase Fyn ; FYN-2 ; P06241 (Homo sapiens, UniProt P06241); settings: DIA-MS residual binding; binder
Chain of Tyrosine-protein kinase Fyn ; FYN-2 ; P06241 (P06241 whole entry, one chain of several): as the sequence (P06241 whole entry, the tested form may be a part) above

[11] = target: Peripheral plasma membrane protein CASK ; CASK ; O14936 (Homo sapiens, UniProt O14936); settings: DIA-MS residual binding; binder
Chain of Peripheral plasma membrane protein CASK ; CASK ; O14936 (O14936 whole entry): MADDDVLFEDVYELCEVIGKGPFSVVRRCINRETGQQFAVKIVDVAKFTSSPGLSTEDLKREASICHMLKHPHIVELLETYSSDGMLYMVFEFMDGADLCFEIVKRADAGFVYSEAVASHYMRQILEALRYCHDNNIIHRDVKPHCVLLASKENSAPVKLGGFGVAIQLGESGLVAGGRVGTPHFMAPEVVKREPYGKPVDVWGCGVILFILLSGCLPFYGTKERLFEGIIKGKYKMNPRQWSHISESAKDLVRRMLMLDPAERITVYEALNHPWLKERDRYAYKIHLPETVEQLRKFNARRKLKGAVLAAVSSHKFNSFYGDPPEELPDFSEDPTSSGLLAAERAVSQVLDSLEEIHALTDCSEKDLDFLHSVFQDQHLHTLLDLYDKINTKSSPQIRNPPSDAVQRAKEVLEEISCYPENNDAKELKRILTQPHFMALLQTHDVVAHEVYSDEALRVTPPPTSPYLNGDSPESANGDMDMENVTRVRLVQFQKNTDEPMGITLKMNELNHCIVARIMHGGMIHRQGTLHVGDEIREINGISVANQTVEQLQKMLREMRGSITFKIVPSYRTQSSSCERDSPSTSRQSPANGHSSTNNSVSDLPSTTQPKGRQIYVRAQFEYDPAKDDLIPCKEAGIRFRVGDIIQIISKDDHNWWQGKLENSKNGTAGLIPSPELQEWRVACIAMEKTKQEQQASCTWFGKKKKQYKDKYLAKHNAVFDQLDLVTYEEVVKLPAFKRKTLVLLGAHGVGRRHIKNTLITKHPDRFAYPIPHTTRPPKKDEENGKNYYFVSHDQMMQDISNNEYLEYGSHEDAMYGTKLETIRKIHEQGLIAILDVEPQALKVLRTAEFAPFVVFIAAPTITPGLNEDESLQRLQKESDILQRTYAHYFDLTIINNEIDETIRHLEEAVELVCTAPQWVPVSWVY

[12] = target: Dual specificity testis-specific protein kinase 1 ; TESK1 ; Q15569 (Homo sapiens, UniProt Q15569); settings: DIA-MS residual binding; binder
[13] = target: Proto-oncogene tyrosine-protein kinase receptor Ret ; RET ; P07949 (Homo sapiens, UniProt P07949); settings: binder

Chain of Tyrosine-protein kinase Lyn ; LYN ; P07948 (P07948 whole entry): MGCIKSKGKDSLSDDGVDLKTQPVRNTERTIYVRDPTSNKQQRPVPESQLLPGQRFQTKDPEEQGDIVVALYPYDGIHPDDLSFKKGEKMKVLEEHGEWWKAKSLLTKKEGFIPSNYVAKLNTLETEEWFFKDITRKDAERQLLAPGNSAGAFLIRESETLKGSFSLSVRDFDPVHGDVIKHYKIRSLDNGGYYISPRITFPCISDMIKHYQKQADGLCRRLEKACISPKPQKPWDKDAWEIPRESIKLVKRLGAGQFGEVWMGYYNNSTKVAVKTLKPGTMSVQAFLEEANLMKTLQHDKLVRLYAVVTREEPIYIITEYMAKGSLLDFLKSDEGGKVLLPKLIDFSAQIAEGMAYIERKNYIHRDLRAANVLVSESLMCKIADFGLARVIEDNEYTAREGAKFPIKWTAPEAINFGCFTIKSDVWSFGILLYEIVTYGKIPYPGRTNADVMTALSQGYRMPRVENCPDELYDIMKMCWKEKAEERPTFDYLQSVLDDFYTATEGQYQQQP

Cc1nc(Nc2ncc(C(=O)Nc3c(C)cccc3Cl)s2)cc(N2CCN(CCO)CC2)n1 [dasatinib]
DIA-MS / % Intensity (30 µM/DMSO) [1]: 11.5%
DIA-MS / % Intensity (30 µM/DMSO) [2]: 7.109%
DIA-MS / % Intensity (30 µM/DMSO) [3]: 30.34%
DIA-MS / % Intensity (30 µM/DMSO) [4]: 32.28%
DIA-MS / % Intensity (30 µM/DMSO) [5]: 2.565%
DIA-MS / % Intensity (30 µM/DMSO) [6]: 1.145%
DIA-MS / % Intensity (30 µM/DMSO) [7]: 12.29%
DIA-MS / % Intensity (30 µM/DMSO) [8]: 55.82%
DIA-MS / % Intensity (30 µM/DMSO) [9]: 0.4604%
DIA-MS / % Intensity (30 µM/DMSO) [10]: 2.543%
DIA-MS / % Intensity (30 µM/DMSO) [11]: 21.6%
DIA-MS / % Intensity (30 µM/DMSO) [12]: 14.82%
DIA-MS / % Intensity (30 µM/DMSO) [13]: 41.37%
